Literature values as cited in patent US6753298B2, “Agents for combating Neospora spec” (Bayer AG, priority 1997, dated 2004).

Tested on: Neospora
Conditions: experimentally infected mice; administered by drinking water

For `Nc1ccc(S(=O)(=O)Nc2ncccn2)cc1` [sulphadiazine], the in-vivo efficacy is listed as “effective only when the treatment was prophylactic”.
